# Columns and labels:
# Format in all cases: functional
# BT-549 = assay: Cytotoxicity against human BT549 cells assessed as growth inhibition at 10 uM after 48 hrs by coulter counter analysis; details: BT-549, 48 h, read-out: GI
# NCI-H226 = assay: Cytotoxicity against human NCI-H226 cells assessed as growth inhibition at 10 uM after 48 hrs by coulter counter analysis; details: NCI-H226, 48 h, read-out: GI
# MDA-MB-231 = assay: Cytotoxicity against human MDA-MB-231 cells assessed as growth inhibition at 10 uM after 48 hrs by coulter counter analysis; details: MDA-MB-231, 48 h, read-out: GI
# SK-MEL-28 = assay: Cytotoxicity against human SK-MEL-28 cells assessed as growth inhibition at 10 uM after 48 hrs by coulter counter analysis; details: SK-MEL-28, 48 h, read-out: GI
# UACC-62 = assay: Cytotoxicity against human UACC62 cells assessed as growth inhibition at 10 uM after 48 hrs by coulter counter analysis; details: UACC-62, 48 h, read-out: GI
# CAKI-1 = assay: Cytotoxicity against human Caki1 cells assessed as growth inhibition at 10 uM after 48 hrs by coulter counter analysis; details: CAKI-1, 48 h, read-out: GI
# ACHN = assay: Cytotoxicity against human ACHN cells assessed as growth inhibition at 10 uM after 48 hrs by coulter counter analysis; details: read-out: GI
# IGROV-1 = assay: Cytotoxicity against human IGROV1 cells assessed as growth inhibition at 10 uM after 48 hrs by coulter counter analysis; details: IGROV-1, 48 h, read-out: GI
# OVCAR-3 = assay: Cytotoxicity against human OVCAR3 cells assessed as growth inhibition at 10 uM after 48 hrs by coulter counter analysis; details: OVCAR-3, 48 h, read-out: GI
# SN12C = assay: Cytotoxicity against human SN12C cells assessed as growth inhibition at 10 uM after 48 hrs by coulter counter analysis; details: read-out: GI
# NCI-H522 = assay: Cytotoxicity against human NCI-H522 cells assessed as growth inhibition at 10 uM after 48 hrs by coulter counter analysis; details: NCI-H522, 48 h, read-out: GI
# HL-60(TB) = assay: Cytotoxicity against human HL-60(TB) cells assessed as growth inhibition at 10 uM after 48 hrs by coulter counter analysis; details: HL-60, 48 h, read-out: GI
# NCI-H23 = assay: Cytotoxicity against human NCI-H23 cells assessed as growth inhibition at 10 uM after 48 hrs by coulter counter analysis; details: NCI-H23, 48 h, read-out: GI
# NCI-H322M = assay: Cytotoxicity against human NCI-H322M cells assessed as growth inhibition at 10 uM after 48 hrs by coulter counter analysis; details: read-out: GI
# Hs-578T = assay: Cytotoxicity against human Hs578T cells assessed as growth inhibition at 10 uM after 48 hrs by coulter counter analysis; details: read-out: GI
# MOLT-4 = assay: Cytotoxicity against human MOLT4 cells assessed as growth inhibition at 10 uM after 48 hrs by coulter counter analysis; details: MOLT-4, 48 h, read-out: GI
# DU-145 = assay: Cytotoxicity against human DU145 cells assessed as growth inhibition at 10 uM after 48 hrs by coulter counter analysis; details: DU-145, 48 h, read-out: GI
# [1] = Cytotoxicity against human non-small cell lung cancer cells after 48 hrs by coulter counter analysis; details: Cancer cell lines
# [2] = Cytotoxicity against human prostate cancer cells after 48 hrs by coulter counter analysis; details: Cancer cell lines
# [3] = Cytotoxicity against human renal cancer cells after 48 hrs by coulter counter analysis; details: Cancer cell lines
# [4] = Cytotoxicity against human melanoma cells after 48 hrs by coulter counter analysis; details: Melanoma cell
# [5] = Cytotoxicity against human ovarian cancer cells after 48 hrs by coulter counter analysis; details: Cancer cell lines
# [6] = Cytotoxicity against human CNS cancer cells after 48 hrs by coulter counter analysis; details: Cancer cell lines
# [7] = Cytotoxicity against human colon cancer cells after 48 hrs by coulter counter analysis; details: Cancer cell lines
# [8] = Cytotoxicity against human breast cancer cells after 48 hrs by coulter counter analysis; details: Cancer cell lines
# [9] = Cytotoxicity against human leukemia cells after 48 hrs by coulter counter analysis; details: Leukemia cell
# [10] = read-out: LC50 (the source's name)
structure (smiles),measurement,setting,value
O=C(CSc1nc2ccccc2c(=O)n1CCc1ccccc1)Nc1ccc(F)cc1,inhibition of growth at 10 µM,BT-549,10%
same,inhibition of growth at 10 µM,NCI-H226,< 10%
same,inhibition of growth at 10 µM,MDA-MB-231,22%
same,inhibition of growth at 10 µM,SK-MEL-28,< 10%
same,inhibition of growth at 10 µM,UACC-62,25%
same,inhibition of growth at 10 µM,CAKI-1,22%
same,inhibition of growth at 10 µM,ACHN,16%
same,inhibition of growth at 10 µM,IGROV-1,16%
same,inhibition of growth at 10 µM,OVCAR-3,< 10%
same,inhibition of growth at 10 µM,SN12C,19%
same,inhibition of growth at 10 µM,NCI-H522,31%
same,inhibition of growth at 10 µM,HL-60(TB),25%
same,inhibition of growth at 10 µM,NCI-H23,12%
same,inhibition of growth at 10 µM,NCI-H322M,17%
same,inhibition of growth at 10 µM,Hs-578T,16%
same,inhibition of growth at 10 µM,MOLT-4,26%
same,inhibition of growth at 10 µM,DU-145,< 10%
COc1cc(NC(=O)CSc2nc3ccccc3c(=O)n2CCc2ccccc2)cc(OC)c1OC,inhibition of growth at 10 µM,BT-549,> 100%
same,inhibition of growth at 10 µM,NCI-H226,> 100%
same,GI50,[1],2.04 µM
same,TGI,[1],43.1 µM
same,CC50,[1]; [10],> 100 µM
same,GI50,[2],4.98 µM
same,TGI,[2],> 100 µM
same,CC50,[2]; [10],> 100 µM
same,inhibition of growth at 10 µM,MDA-MB-231,> 100%
same,inhibition of growth at 10 µM,SK-MEL-28,63%
same,inhibition of growth at 10 µM,UACC-62,25%
same,GI50,[3],1.77 µM
same,TGI,[3],3.63 µM
same,inhibition of growth at 10 µM,ACHN,> 100%
same,inhibition of growth at 10 µM,IGROV-1,92%
same,inhibition of growth at 10 µM,OVCAR-3,> 100%
same,inhibition of growth at 10 µM,SN12C,75%
same,inhibition of growth at 10 µM,NCI-H522,> 100%
same,inhibition of growth at 10 µM,NCI-H23,74%
same,GI50,[4],3.3 µM
same,TGI,[4],76.6 µM
same,GI50,[5],2.55 µM
same,TGI,[5],52 µM
same,inhibition of growth at 10 µM,NCI-H322M,73%
same,GI50,[6],2.73 µM
same,TGI,[6],13.5 µM
same,CC50,[6]; [10],75 µM
same,inhibition of growth at 10 µM,Hs-578T,64%
same,GI50,[7],2.02 µM
same,TGI,[7],> 100 µM
same,CC50,[7]; [10],> 100 µM
same,GI50,[8],2.77 µM
same,TGI,[8],44.1 µM
same,inhibition of growth at 10 µM,DU-145,55%
same,GI50,[9],> 100 µM
same,TGI,[9],> 100 µM
Cc1ccc(NC(=O)CSc2nc3ccccc3c(=O)n2CCc2ccccc2)cc1,inhibition of growth at 10 µM,BT-549,< 10%
same,inhibition of growth at 10 µM,NCI-H226,< 10%
same,inhibition of growth at 10 µM,MDA-MB-231,23%
same,inhibition of growth at 10 µM,SK-MEL-28,22%
same,inhibition of growth at 10 µM,UACC-62,20%
same,inhibition of growth at 10 µM,CAKI-1,13%
same,inhibition of growth at 10 µM,ACHN,21%
same,inhibition of growth at 10 µM,IGROV-1,20%
same,inhibition of growth at 10 µM,OVCAR-3,< 10%
same,inhibition of growth at 10 µM,SN12C,< 10%
same,inhibition of growth at 10 µM,NCI-H522,22%
same,inhibition of growth at 10 µM,HL-60(TB),< 10%
same,inhibition of growth at 10 µM,NCI-H23,< 10%
same,inhibition of growth at 10 µM,NCI-H322M,15%
same,inhibition of growth at 10 µM,Hs-578T,41%
same,inhibition of growth at 10 µM,MOLT-4,< 10%
same,inhibition of growth at 10 µM,DU-145,< 10%

# — ChEMBL document CHEMBL2396621, “Design, synthesis and biological evaluation of 2-mercapto-3-phenethylquinazoline bearing anilide fragments as potential antitumor agents: molecular docking study” (2013)
